Source: patent US20250127743A1, “USE OF BRANCHED CHAIN FATTY ACIDS (BCFAS) FOR THE TREATMENT OF INTESTINAL INFLAMMATION” (priority 2021, published 2025)
Read-outs that look alike come from different tables or passages of the source.

What was measured:
[1] = system: proteins conjugated to SUMO2/3 in CACO2 cells; assay: Immunoblot quantification of SUMO2/3-conjugated proteins (above 50 kDa) in CACO2 cells; type: cell-based; conditions: for effect of ROS scavenger preincubation on BCFAs-induced hyperSUMOylation: 30 min pre-incubation with 5 mM NAC or 10 μM DPI, then 1h 5 mM isobutyric or isovaleric acid
Experimental: (§1) CACO2 and HeLa cells were cultivated in Minimum Essential Medium (MEM) (Eurobio) supplemented with 2 mM L-Glutamine (Invitrogen), 10% Fetal Bovine Serum (FBS, Eurobio), non-essential aminoacids (Sigma), 1 mM sodium pyruvate (Gibco) and a mixture of penicillin (10000 U/mL) and streptomycin (10 mg/mL). […] CACO2 and T84 cells were seeded in wells at a density of 1.1×10^5 cells/cm^2 and 1.7×10^5 cells/cm^2, respectively, the day before incubation with BCFAs or SCFAs.
(§2) Before treatments, cell culture medium was replaced by HBSS (Hanks' Balanced Salt Solution; Sigma). Cells were then treated as indicated in the text and directly lysed with Laemmli buffer. For BCFAs and SCFAs treatments, 100 mM stock solutions in water were first prepared from the corresponding acidic form (e.g. isobutyric acid) or from the sodium salt of the corresponding basic form (e.g. sodium isobutyrate) and then further diluted in cell culture media (HBSS). When needed, the pH of cell culture medium was set using either 0.1 M NaOH or 0.1 M HCl solution. […] For TNFα treatments, CACO2 cells were first incubated with BCFAs or SCFAs for 1 hour and then incubated with 100 ng/mL recombinant human TNFα (PeproTech). For immunoblotting and qRT-PCR analyses, cells were lysed after 30 min or 1h of incubation with TNFα, respectively. For Transepithelial electrical resistance (TEER) measurements, cells were incubated for 24 h with TNFα. Viability of cells incubated with HBSS at various pH or with BCFAs was assessed using the CellTiter-Glo® luminescent cell viability assay (Promega), according to the manufacturer's protocol.
(§3) Cell lysates and protein extracts from intestinal tissues in Laemmli buffer were boiled for 5 min, sonicated and protein content was resolved using SDS-polyacrylamide gel electrophoresis. Proteins were then transferred on PVDF membranes (GE Healthcare) and detected after incubation with specific antibodies using ECL Clarity Western blotting Substrate (BioRad). […] Quantifications of proteins were performed on a ChemiDoc Imaging System (Bio-rad). SUMO2/3-conjugated proteins levels (above 50 kDa), SUMO1-conjugated protein levels (above 50 kDa), and other specific protein levels were normalized either by the level of total proteins above 50 kDa (determined using the TGX-stain free imaging technology; Bio-rad) or by the level of actin in each lysate.

[2] = system: cullin-1 neddylation in HeLa cells; conditions: HeLa cells (Kumar et al., 2007; Kumar et al., 2009); cited from earlier work
HeLa cells = HeLa cells (Kumar et al., 2009); cited from earlier work
IκBα = assay: Immunoblot of IκBα levels in TNFα-stimulated CACO2 cells; type: cell-based; conditions: 1 hour pre-incubation with 5 mM, then 30 min 100 ng/mL TNFα
Experimental: as §2, §3

[3] = system: IEC-6 intestinal epithelial cells; conditions: IEC-6 intestinal epithelial cells (Kumar et al., 2009); cited from earlier work
CACO2 cells [4] = assay: Luminol-based ROS detection assay in CACO2 cells; type: cell-based; conditions: for ROS production: 1h of incubation; for level of ROS: 5h of incubation, compared with 1h
Experimental: Luminol was dissolved in NaOH 0.1 M to obtain a 50 mM stock solution. A stock solution of 1000 U/mL HRP (HorseRadish Peroxidase) was prepared in parallel in PBS (Phosphate-Buffered Saline). After treatment with BCFAs or SCFAs or incubation in HBSS at pH 5.2, CACO2 and HeLa culture media were collected and centrifugated for 5 min at 13,000×g at room temperature. The pH of these culture media was then buffered to 7.5 to avoid pH-dependent interferences with luminol activity. Luminol (1 mM final concentration) and HRP (4 U/mL) were finally added to each culture media and luminescence was quantified immediately on a luminometer (Tecan).

IL8 = assay: qRT-PCR of IL8 mRNA in TNFα-stimulated CACO2 cells; type: cell-based; conditions: 1 hour pre-treatment, then 1 hour 100 ng/mL TNFα
Experimental: as §2, with “For Transepithelial electrical resistance (TEER) measurements, cells were incubated for 24 h with TNFα.” left out
(§4) Total RNAs were extracted from CACO2 cells using the RNeasy Plus Mini kit (Qiagen) following manufacturer's instructions. […] Specific cDNAs were then quantified by qPCR using Itaq Universal SYBR Green Supermix (BioRad) on a Mastercycler ep Realplex system (Eppendorf, Hamburg, Germany). […]

[5] = system: proteins conjugated to SUMO2/3 in T84 cells; assay: Immunoblot of SUMO2/3-conjugated proteins in T84 cells; type: cell-based; conditions: 5 mM, 1h of incubation
Experimental: as §1
Before treatments, cell culture medium was replaced by HBSS (Hanks' Balanced Salt Solution; Sigma). Cells were then treated as indicated in the text and directly lysed with Laemmli buffer. […] Viability of cells incubated with HBSS at various pH or with BCFAs was assessed using the CellTiter-Glo® luminescent cell viability assay (Promega), according to the manufacturer's protocol.
Cell lysates and protein extracts from intestinal tissues in Laemmli buffer were boiled for 5 min, sonicated and protein content was resolved using SDS-polyacrylamide gel electrophoresis. Proteins were then transferred on PVDF membranes (GE Healthcare) and detected after incubation with specific antibodies using ECL Clarity Western blotting Substrate (BioRad). […] Quantifications of proteins were performed on a ChemiDoc Imaging System (Bio-rad). […]

CACO2 cells [6] = assay: Intracellular pH (BCECF-AM) in CACO2 cells; type: cell-based; conditions: 5 mM
deSUMOylases = assay: DeSUMOylase activity assay (SUMO-AMC cleavage) in lysates of treated CACO2 and T84 cells; type: cell-based; conditions: 5 mM for 5 h, cell lysates
Experimental: For in vitro cell lines, CACO2 and T84 cells grown in 12-well plates were scraped in 100 μL lysis buffer (Tris HCl pH 8.0 50 mM, EDTA 5 mM, NaCl 200 mM, Glycerol 10%, NP40 0.5%). For in vivo tissues, caecal segments were resuspended in lysis buffer (800 μL for 100 mg of tissues), mechanically lysed using bead beating and further diluted 25 times in lysis buffer. Negative controls were prepared by adding 10 mM N-ethymaleimide (NEM; Sigma-Aldrich) to cell lysates. Recombinant human SUMO1-AMC and SUMO2-AMC proteins (R&D Systems) were diluted in parallel to 500 nM in Assay buffer (Tris HCl pH 8.0 50 mM, Bovine Serum Albumin (BSA) 100 μg/mL, Dithiothreitol (DTT) 10 mM). For each measurement, 10 μL of cell or tissue lysates were mixed with 40 μL of SUMO-AMC containing Assay buffer and fluorescence (λEx=380 nm; λEm=460 nm) was recorded for 30 min at 37° C. on a Flexstation 3 microplate reader (Molecular Devices). DeSUMOylase activities were determined by calculating the initial rate of fluorescence emission in each lysate and by normalizing by the quantity of proteins in the corresponding sample, determined in parallel using BCA assays (Pierce™ BCA Protein Assay Kit).

[7] = system: cullin-1 neddylation in HeLa cells; assay: Cullin-1 neddylation in HeLa cells; type: cell-based; conditions: 5h of incubation
Experimental: as §1, §3

[8] = pH and acid/base forms of BCFA in HBSS medium; type: physicochemical; conditions: 5 mM added to HBSS medium
Experimental: as §2
BCFAs are weak organic acids, which exist in solution either as acidic (R—COOH) or basic (R—COO^−) forms.

CCL20 = assay: qRT-PCR of CCL20 mRNA in TNFα-stimulated CACO2 cells; type: cell-based; conditions: 1 hour pre-treatment, then 1 hour 100 ng/mL TNFα
Experimental: as §2, with “For Transepithelial electrical resistance (TEER) measurements, cells were incubated for 24 h with TNFα.” left out
as §4

T84 cells = assay: Intracellular pH (BCECF-AM) in T84 cells; conditions: 5 mM
Experimental: CACO2 and T84 cells, grown in 96-well plates were loaded with 2 μM BCECF-AM (2′,7′-Bis-(2-Carboxyethyl)-5-(and-6)-Carboxyfluorescein, Acetoxymethyl Ester; Invitrogen) for 30 min in HBSS at 37° C. […] Cells were then washed twice and incubated in HBSS with or without BCFAs or with HBSS at definite pH. Cell fluorescence (λEmission535 nm) was recorded at two different excitation wavelengths: 440 nm and 490 nm. Comparison of the ratios of fluorescence intensities (490/440 nm) was performed to detect changes in intracellular pH. Calibration solutions (with pH ranging from 4.5 to 7.5) were used as controls (Intracellular pH Calibration Buffer Kit; Molecular Probes).

CACO2 cells [9] = assay: Transepithelial electrical resistance (TEER) of differentiated CACO2 monolayers with TNFα; type: cell-based; conditions: differentiated CACO2 in Transwell, 1 hour pre-treatment, then 24 hours 100 ng/mL TNFα
Experimental: CACO2 cells were seeded in Transwell inserts and cultivated for 21 days. Monolayer formation and differentiation was monitored by daily evaluation of transepithelial electrical resistance (TEER) measurement, performed with an EVOM epithelial voltohm meter equipped with “chopstick” electrodes. After three weeks, cell culture media were replaced by HBSS. Cells were then preincubated or not with isobutyric or isovaleric acids for 1 hour. 100 ng/mL TNFα was then added to both apical and basolateral compartments. TEER was evaluated after 24h of incubation.

SAE1/SAE2 or UBC9 = assay: Immunoblot of E1 and E2 SUMO enzyme levels in CACO2 cells; type: cell-based
Experimental: as §3

DSS-treated mice [10] = assay: Colonic permeability (Lucifer yellow flux, Ussing chambers) in DSS mouse model of colitis; type: in vivo; conditions: 2% DSS in drinking water 7 days, 150 mM in drinking water, three days after the end of DSS
Experimental: Eight-weeks-old C57Bl/6JRj male mice (Janvier Labs, Le-Genest-Saint-Isle, France) were housed at 23° C. (5 animals/cage) with a 12-h light-dark cycle in regular open cages. All animals were fed with a non-sterilized standard rodent diet (3430.PM.S10, Serlab, France). Drinking water was not sterilized. Animals were acclimatized to the animal facility for 1 week before experimentations. To monitor the effect of BCFAs on chemically-induced intestinal inflammation, animals were split in three groups (8 animals/group): one group had no treatment, one group was treated with DSS (Dextran Sulfate Sodium, MB Biomedicals, France; 2% in drinking water) from D4 to D11 to induce colitis and one group was treated both with sodium isobutyrate (150 mM in drinking water, pH 7.4; from DO to D13) and DSS (D4 to D11). Colon samples were cut along the mesenteric border. Colonic permeability was assessed by measuring Lucifer yellow (440 Da; Sigma-aldrich) fluxes in Ussing chambers with an exchange surface of 0.07 cm2 (Harvard Apparatus, Holliston, MA). Lucifer yellow (250 μg/ml) was added to the mucosal side. After 3 h at 37° C., medium from the serosal side was removed and the fluorescence level of Lucifer yellow (excitation: 428 nm; emission: 540 nm) was quantified.

DSS-treated mice [11] = assay: Fecal calprotectin in DSS mouse model of colitis; type: in vivo; conditions: 2% DSS in drinking water 7 days, 150 mM in drinking water, 3 days after the end of DSS
Experimental: Eight-weeks-old C57Bl/6JRj male mice (Janvier Labs, Le-Genest-Saint-Isle, France) were housed at 23° C. (5 animals/cage) with a 12-h light-dark cycle in regular open cages. All animals were fed with a non-sterilized standard rodent diet (3430.PM.S10, Serlab, France). Drinking water was not sterilized. Animals were acclimatized to the animal facility for 1 week before experimentations. To monitor the effect of BCFAs on chemically-induced intestinal inflammation, animals were split in three groups (8 animals/group): one group had no treatment, one group was treated with DSS (Dextran Sulfate Sodium, MB Biomedicals, France; 2% in drinking water) from D4 to D11 to induce colitis and one group was treated both with sodium isobutyrate (150 mM in drinking water, pH 7.4; from DO to D13) and DSS (D4 to D11). Fecal pellets were weighted and resuspended in 600 μL of PBS with 1% protease and phosphatase inhibitors (Sigma-Aldrich, USA). After a centrifugation step (12000×g, 15 min, 4° C.), calprotectin was quantified in the obtained supernatants using the S100A8 DuoSet® kit (R&D Systems, Minneapolis), according to the manufacturer's protocol.

[12] = CACO2 cells, 5h, pH~5.2, 5 mM final concentration
[13] = CACO2 cells, pH~7.5, 5 mM final concentration

c1ccc2c(c1)[I+]c1ccccc1-2 [DPI, Diphenyleneiodonium]
effect of ROS scavenger preincubation on BCFAs-induced hyperSUMOylation ([1]; CACO2 cells): significantly block

CC(=O)N[C@@H](CS)C(=O)O [NAC, N-acetyl cysteine]
effect of ROS scavenger preincubation on BCFAs-induced hyperSUMOylation ([1]; CACO2 cells): significantly block

CC(=O)O [acetic acid]
level of SUMO2/3-conjugated proteins [1]: significant increase

CCCC(=O)O [butyric acid]
level of SUMO2/3-conjugated proteins [1, 12]: significant increase
cullin-1 neddylation [2]: trigger the loss of cullin-1 neddylation
ROS production (HeLa cells): induce ROS
TNFα-triggered degradation of IκBα (IκBα): block
ROS production [3]: induce ROS
ROS production (CACO2 cells [4]): induce ROS production
level of ROS (CACO2 cells [4]): less important

CC(C)C(=O)O [isobutyric acid]
level of proteins conjugated to SUMO2/3 ([1]; CACO2 cells, 5 mM, 1h or 5h of incubation): significant increase
IL8 mRNA expression in response to TNFα (IL8): downregulate
hyperSUMOylation (SUMO2/3-conjugated proteins) [5]: hyperSUMOylation is similarly observed
intracellular pH (pHi) (CACO2 cells [6]): significant decrease
initial rate of SUMO deconjugation, SUMO1-AMC substrate (deSUMOylases): significantly decrease
initial rate of SUMO deconjugation, SUMO2-AMC substrate (deSUMOylases): significantly decrease
cullin-1 neddylation [7]: triggers cullin-1 deneddylation
concentration present as isobutyrate [8]: ~3500 µM
concentration present as isobutyric acid [8]: ~1500 µM
pH of HBSS medium after addition [8]: ~5.2
proportion present as isobutyrate [8]: ~72%
proportion present as isobutyric acid [8]: ~28%
CCL20 mRNA expression in response to TNFα (CCL20): downregulate
intracellular pH (pHi) (T84 cells): significant decrease
TNFα-induced increase in epithelial permeability (TEER) (CACO2 cells [9]): block
level of SAE1/SAE2 or UBC9 (SAE1/SAE2 or UBC9): do not alter
TNFα-triggered degradation of IκBα (IκBα): block
ROS production (CACO2 cells [4]): induce ROS production
level of ROS (CACO2 cells [4]): less important

CCC(=O)O [propionic acid]
level of SUMO2/3-conjugated proteins [1, 12]: significant increase

CC(=O)[O-].[Na+] [sodium acetate]
SUMOylation pattern [1]: does not trigger any changes

CCCC(=O)[O-].[Na+] [sodium butyrate, reference compound]
SUMOylation pattern [1, 13]: does not trigger any changes
TNFα-triggered degradation of IκBα (IκBα): not observed
ROS detection after incubation with sodium salts (basic forms) (CACO2 cells [4]): no ROS were detected

CC(C)C(=O)[O-].[Na+] [sodium isobutyrate]
DSS-induced colonic hyperpermeability (DSS-treated mice [10]): significantly decreases
level of fecal calprotectin (DSS-treated mice [11]): significantly decreases
concentration present as isobutyrate [8]: ~4990 µM
concentration present as isobutyric acid [8]: ~10 µM
pH of HBSS medium after addition [8]: ~7.5
proportion present as isobutyrate [8]: ~99.8%
proportion present as isobutyric acid [8]: ~0.2%
TNFα-triggered degradation of IκBα (IκBα): not observed
ROS detection after incubation with sodium salts (basic forms) (CACO2 cells [4]): no ROS were detected

CCC(=O)[O-].[Na+] [sodium propionate]
SUMOylation pattern [1, 13]: does not trigger any changes
